Measured values as given in ChEMBL document CHEMBL4387763, “Discovery of novel biaryl sulfonamide based Mcl-1 inhibitors” (Bioorg Med Chem Lett, 2019).
Converted amounts (≈) assume the structure as drawn.

Molecular target: T1, Induced myeloid leukemia cell differentiation protein Mcl-1 (Homo sapiens, UniProt Q07820)
T1 sequence (Q07820 whole entry, the tested form may be a part): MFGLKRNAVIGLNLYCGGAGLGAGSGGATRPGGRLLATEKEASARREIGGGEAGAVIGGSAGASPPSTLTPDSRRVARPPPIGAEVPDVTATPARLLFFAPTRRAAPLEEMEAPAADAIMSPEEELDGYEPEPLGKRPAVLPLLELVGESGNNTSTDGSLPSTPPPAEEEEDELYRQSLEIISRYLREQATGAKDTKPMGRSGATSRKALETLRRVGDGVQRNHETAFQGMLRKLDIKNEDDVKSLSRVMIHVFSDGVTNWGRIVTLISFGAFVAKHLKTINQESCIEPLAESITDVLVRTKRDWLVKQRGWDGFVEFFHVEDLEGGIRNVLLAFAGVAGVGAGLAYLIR
Assay: Inhibition of […]-labelled BID binding to human MCl-1 (171 to 327 residues) expressed in Escherichia coli BL21 (DE3) by fluorescence polarization assay
Conditions: not given
With `O=S(=O)(Nc1ccc(Cl)cc1Cl)c1cc(Cl)ccc1Cl` the IC50 was 21 µM. In the case of `O=S(=O)(Nc1ccc2ccccc2c1)c1cc(Cl)ccc1Cl`, the IC50 is reported as > 25 µM. `Cc1cc(C(=O)N[C@H](Cc2ccccc2)c2nnn[nH]2)sc1S(=O)(=O)Nc1cc(C(F)(F)F)ccc1Cl` gave an IC50 of 0.153 µM. `O=C(Nn1cnnc1)c1cccc(S(=O)(=O)Nc2cc(C(F)(F)F)ccc2Cl)c1` showed an IC50 of 19 µM. For `Cc1cc(C(=O)N[C@H](Cc2ccc(-c3ccccc3)cc2)C(=O)O)sc1S(=O)(=O)Nc1cc(C(F)(F)F)ccc1Cl`, the IC50 was 2.8 µM. Compound `Cc1cc(C(=O)NCC(=O)O)sc1S(=O)(=O)Nc1cc(C(F)(F)F)ccc1Cl` has an IC50 of 0.47 µM. Work on `COC(=O)c1cc(C)c(S(=O)(=O)Nc2cc(C(F)(F)F)ccc2Cl)s1` yielded an IC50 of 1.9 µM. `Cc1cc(C(=O)NC(Cc2ccccc2)Cc2ccccc2)sc1S(=O)(=O)Nc1cc(C(F)(F)F)ccc1Cl` gave an IC50 of 7.1 µM. With `Cc1cc(C(=O)N(CCc2ccccc2)CC(=O)O)sc1S(=O)(=O)Nc1cc(C(F)(F)F)ccc1Cl` the IC50 was 0.69 µM. For `Cc1cc(C(=O)NC2CCc3ccccc3C2)sc1S(=O)(=O)Nc1cc(C(F)(F)F)ccc1Cl` (stereo unspecified), the IC50 was 4.2 µM. For `Cc1cc(C(=O)N[C@H](Cc2ccccc2)C(=O)O)sc1S(=O)(=O)Nc1cc(C(F)(F)F)ccc1Cl`, the IC50 was 0.181 µM. `O=S(=O)(Nc1cc(C(F)(F)F)ccc1Cl)c1sc(Cl)cc1Cl` gave an IC50 of 8.6 µM. Compound `Cc1ccc([N+](=O)[O-])cc1NS(=O)(=O)c1cc(Cl)ccc1Cl` has an IC50 of 20 µM. In the case of `Cc1ccccc1S(=O)(=O)Nc1cc(C(F)(F)F)ccc1Cl`, the IC50 is reported as 11 µM. Work on `Cc1cc(C(=O)NCCc2ccc(Oc3ccccc3)cc2)sc1S(=O)(=O)Nc1cc(C(F)(F)F)ccc1Cl` yielded an IC50 of 7 µM. In the case of `Cc1cc(C(=O)NC2(C(=O)O)CC2)sc1S(=O)(=O)Nc1cc(C(F)(F)F)ccc1Cl`, the IC50 is reported as 1.5 µM. For `Cc1cc(C(=O)N[C@H](Cc2ccccc2)C(N)=O)sc1S(=O)(=O)Nc1cc(C(F)(F)F)ccc1Cl`, the IC50 was 0.153 µM. For `Cc1cc(C(=O)N[C@H](Cc2ccccc2)C(=O)NS(C)(=O)=O)sc1S(=O)(=O)Nc1cc(C(F)(F)F)ccc1Cl`, the IC50 was 0.073 µM. Work on `Cc1cc(C(=O)N[C@H](CCc2ccccc2)C(=O)O)sc1S(=O)(=O)Nc1cc(C(F)(F)F)ccc1Cl` yielded an IC50 of 0.82 µM. `Cc1cc(C(=O)N[C@H](Cc2cccnc2)C(=O)O)sc1S(=O)(=O)Nc1cc(C(F)(F)F)ccc1Cl` gave an IC50 of 0.38 µM. Work on `Cc1cc(C(=O)NCCc2ccccc2)sc1S(=O)(=O)Nc1cc(C(F)(F)F)ccc1Cl` yielded an IC50 of 0.81 µM. Compound `Cc1cc(C(=O)N[C@@H](C(=O)O)C(C)C)sc1S(=O)(=O)Nc1cc(C(F)(F)F)ccc1Cl` has an IC50 of 0.66 µM. `Cc1cc(C(=O)N[C@H](Cc2ccccc2)C(=O)NS(=O)(=O)c2ccccc2)sc1S(=O)(=O)Nc1cc(C(F)(F)F)ccc1Cl` gave an IC50 of 0.053 µM. For `Cc1cc(C(=O)NCc2nnn[nH]2)sc1S(=O)(=O)Nc1cc(C(F)(F)F)ccc1Cl`, the IC50 was 0.42 µM. For `Cc1cc(C(=O)N[C@H](Cc2c[nH]c3ccccc23)C(=O)O)sc1S(=O)(=O)Nc1cc(C(F)(F)F)ccc1Cl`, the IC50 was 0.21 µM. `Cc1cc(C(=O)N[C@H](Cc2c[nH]cn2)C(=O)O)sc1S(=O)(=O)Nc1cc(C(F)(F)F)ccc1Cl` gave an IC50 of 0.92 µM. `Cc1ccc(F)cc1S(=O)(=O)Nc1cc(C(F)(F)F)ccc1Cl` showed an IC50 of 5.5 µM. `Cc1cc(C(=O)N[C@H](Cc2ccccc2)C(=O)NCCO)sc1S(=O)(=O)Nc1cc(C(F)(F)F)ccc1Cl` showed an IC50 of 0.112 µM. In the case of `O=S(=O)(Nc1ccn[nH]1)c1cc(Cl)ccc1Cl`, the IC50 is reported as > 25 µM. Work on `CN(C)c1ccc(S(=O)(=O)N(C)C)cc1NS(=O)(=O)c1cc(Cl)ccc1Cl` yielded an IC50 of 18 µM. Work on `Cc1cc(C(=O)NC[C@H](O)c2ccccc2)sc1S(=O)(=O)Nc1cc(C(F)(F)F)ccc1Cl` yielded an IC50 of 0.47 µM. `Cc1cc2c(cc1S(=O)(=O)Nc1cc(C(F)(F)F)ccc1Cl)OCC(=O)N2` showed an IC50 of 1.8 µM. With `Cc1cc(F)ccc1S(=O)(=O)Nc1cc(C(F)(F)F)ccc1Cl` the IC50 was 10 µM. In the case of `O=S(=O)(Nc1ccccc1Cl)c1cc(Cl)ccc1Cl`, the IC50 is reported as > 25 µM. With `CC(C)c1cccc(NS(=O)(=O)c2cc(Cl)ccc2Cl)c1` the IC50 was > 25 µM. `Cc1cc(C(=O)NS(C)(=O)=O)sc1S(=O)(=O)Nc1cc(C(F)(F)F)ccc1Cl` gave an IC50 of 1.07 µM. `Cc1cc(C(=O)N2CCN(C(=O)OC(C)(C)C)C[C@H]2C(=O)O)sc1S(=O)(=O)Nc1cc(C(F)(F)F)ccc1Cl` showed an IC50 of 0.63 µM. `Cn1ccnc1S(=O)(=O)Nc1cc(C(F)(F)F)ccc1Cl` showed an IC50 of 17 µM. Compound `O=S(=O)(Nc1cc(Cl)c(Cl)cc1Cl)c1cc(Cl)ccc1Cl` has an IC50 of 9 µM. Compound `O=S(=O)(Nc1cc(C(F)(F)F)ccc1Cl)c1c(Cl)cccc1Cl` has an IC50 of 7.3 µM. `Cc1cc(C(=O)NC(Cc2ccccc2)C(=O)O)sc1S(=O)(=O)Nc1cc(C(F)(F)F)ccc1Cl` (stereo unspecified) showed an IC50 of 0.3 µM. `Cc1cc(C(=O)N[C@H](COCc2ccccc2)C(=O)O)sc1S(=O)(=O)Nc1cc(C(F)(F)F)ccc1Cl` gave an IC50 of 0.31 µM. In the case of `Cc1cc(C(=O)N2CCCC[C@H]2C(=O)O)sc1S(=O)(=O)Nc1cc(C(F)(F)F)ccc1Cl`, the IC50 is reported as 1 µM. With `O=S(=O)(Nc1cccc(C(F)(F)F)c1)c1cc(Cl)ccc1Cl` the IC50 was > 25 µM. With `Cc1ccc(S(=O)(=O)Nc2cc(C(F)(F)F)ccc2Cl)c(C)c1` the IC50 was 12 µM. For `COC(=O)[C@@H](Cc1ccccc1)NC(=O)c1cc(C)c(S(=O)(=O)Nc2cc(C(F)(F)F)ccc2Cl)s1`, the IC50 was 0.145 µM. For `Cc1cc(C(=O)NC(Cc2ccccc2)c2ccccc2)sc1S(=O)(=O)Nc1cc(C(F)(F)F)ccc1Cl` (stereo unspecified), the IC50 was 7.1 µM. With `Cc1nn(C)c(Cl)c1S(=O)(=O)Nc1cc(C(F)(F)F)ccc1Cl` the IC50 was 23 µM. Work on `O=S(=O)(Nc1cc(C(F)(F)F)ccc1Cl)c1ccccc1Cl` yielded an IC50 of 13 µM. `Cc1cc(C(=O)N[C@@H](Cc2ccccc2)C(=O)O)sc1S(=O)(=O)Nc1cc(C(F)(F)F)ccc1Cl` gave an IC50 of 0.75 µM. Compound `Cc1cc(C(=O)N[C@H](C)C(=O)O)sc1S(=O)(=O)Nc1cc(C(F)(F)F)ccc1Cl` has an IC50 of 1.5 µM. `O=S(=O)(Nc1cc(Cl)ccc1Cl)c1cc(Cl)ccc1Cl` gave an IC50 of 11 µM. In the case of `O=S(=O)(Nc1cc(C(F)(F)F)ccc1Cl)c1cc(Cl)ccc1Cl`, the IC50 is reported as 0.149 to 3.1 µM. Compound `Cc1cc(C(=O)NCCC(=O)O)sc1S(=O)(=O)Nc1cc(C(F)(F)F)ccc1Cl` has an IC50 of 3.5 µM. `Cc1cc(C(=O)NC[C@@H](O)c2ccccc2)sc1S(=O)(=O)Nc1cc(C(F)(F)F)ccc1Cl` gave an IC50 of 0.149 µM.

System: not listed separately
Assay: Solubility of the compound
Format: physicochemical
Conditions: not given
Compound `Cc1cc(C(=O)N[C@H](Cc2ccccc2)C(=O)O)sc1S(=O)(=O)Nc1cc(C(F)(F)F)ccc1Cl` has a solubility of 100 µM (≈ 54.7 µg/mL). `Cc1cc(C(=O)N[C@H](Cc2c[nH]c3ccccc23)C(=O)O)sc1S(=O)(=O)Nc1cc(C(F)(F)F)ccc1Cl` showed a solubility of 100 µM (≈ 58.6 µg/mL).

Molecular target: T1, Induced myeloid leukemia cell differentiation protein Mcl-1
Assay: Binding affinity to biotin-labelled TEV-fused GST-tagged MCl-1 (unknown origin) by surface plasmon resonance analysis
Conditions: not given
With `Cc1cc(C(=O)NC[C@@H](O)c2ccccc2)sc1S(=O)(=O)Nc1cc(C(F)(F)F)ccc1Cl` the Kd was 0.165 µM.

System: not listed separately
Assay: Stability in mouse liver microsomes assessed as parent compound remaining after 30 mins
Format: ADME, Microsome
Conditions: read-out: Stability
Work on `Cc1cc(C(=O)N[C@H](Cc2ccccc2)C(=O)O)sc1S(=O)(=O)Nc1cc(C(F)(F)F)ccc1Cl` yielded a remaining at 0.5 h of 95%. `Cc1cc(C(=O)N[C@H](Cc2ccccc2)C(=O)NS(C)(=O)=O)sc1S(=O)(=O)Nc1cc(C(F)(F)F)ccc1Cl` showed a remaining at 0.5 h of 91%. Work on `Cc1cc(C(=O)N[C@H](Cc2ccccc2)C(=O)NS(=O)(=O)c2ccccc2)sc1S(=O)(=O)Nc1cc(C(F)(F)F)ccc1Cl` yielded a remaining at 0.5 h of 81%. With `Cc1cc(C(=O)N[C@H](Cc2c[nH]c3ccccc23)C(=O)O)sc1S(=O)(=O)Nc1cc(C(F)(F)F)ccc1Cl` the remaining at 0.5 h was 94%.

System: not listed separately
Assay: Stability in human liver microsomes assessed as parent compound remaining after 30 mins
Format: ADME, Microsome
Conditions: read-out: Stability
`Cc1cc(C(=O)N[C@H](Cc2ccccc2)C(=O)O)sc1S(=O)(=O)Nc1cc(C(F)(F)F)ccc1Cl` showed a remaining at 0.5 h of 66%. Work on `Cc1cc(C(=O)N[C@H](Cc2ccccc2)C(=O)NS(C)(=O)=O)sc1S(=O)(=O)Nc1cc(C(F)(F)F)ccc1Cl` yielded a remaining at 0.5 h of 99%. In the case of `Cc1cc(C(=O)N[C@H](Cc2ccccc2)C(=O)NS(=O)(=O)c2ccccc2)sc1S(=O)(=O)Nc1cc(C(F)(F)F)ccc1Cl`, the remaining at 0.5 h is reported as 74%. For `Cc1cc(C(=O)N[C@H](Cc2c[nH]c3ccccc23)C(=O)O)sc1S(=O)(=O)Nc1cc(C(F)(F)F)ccc1Cl`, the remaining at 0.5 h was 98%.
